Results as given in patent US10610555B2, “Method for alleviating osteoarthritis by using composite (HL-Joint 100) of achyranthes bidentata, eucommin ulmoides oliver and pomegranate extracts, which has antiinflammatory effect caused by COX2 and PGE2 inhibition, cartilage protective effect caused by MMP-2 and -9 inhibition and cartilage …” (HLSCIENCE CO., LTD., priority 2015, dated 2020).

Columns and labels:
Assay type in all cases: in vivo
[1] = system: chondrogenesis-related mRNAs (collagen type II, SOX9 and aggrecan); experiment: Osteoarthritis rat model: chondrogenesis-related mRNA expression; settings: diclofenac subcutaneous
Procedure: (§1) The osteoarthritis-improving effect of the single or mixed formula of the pomegranate concentrate powder (PCP), the eucommia bark water extract powder (EC) and the achyranthis radix water extract powder (AR) was evaluated. As the representative osteoarthritis (OA) experimental animal model, rats with osteoarthritis (OA) induced by anterior cruciate ligament transaction and partial medial meniscectomy were used [Kim et al., 2012; Kang et al., 2014a; Moon et al., 2014; Choi et al., 2015]. […] In addition, the change in articular cartilage thickness and the number of cyclooxygenase (COX)-2- and tumor necrosis factor (TNF)-α-immunopositive cells in the tibial articular cartilage was monitored [Moore et al. 2005; Kim et al., 2012; Kang et al., 2014a; Choi et al., 2015]. Through this experiment, the anti-inflammatory effect and cartilage-regenerating effect of the pomegranate concentrate powder, the eucommia bark extract and the achyranthis radix extract were evaluated.
(§2) An adequate amount of PCP, EC or AR was dissolved in sterilized distilled water and orally administered at a dosage of 5 mL/kg from 7 days after the osteoarthritis (OA) surgery once a day for 28 days. That is to say, each of the single formulas of PCP, EC and AR and the mixed formulas of PCP and EC:AR (1:1, 1:2, 1:4, 1:6, 1:8, 2:1, 4:1, 6:1 and 8:1) was orally administered at a dosage of 200 mg/kg for 28 days. […]

collagen type II mRNA = experiment: Osteoarthritis rat model: collagen type II mRNA expression in articular cartilage and joint capsule; settings: OA rats, 200 mg/kg oral 28 days (diclofenac 2 mg/kg s.c.), mean ± SD
Procedure: as §1
An adequate amount of PCP, EC or AR was dissolved in sterilized distilled water and orally administered at a dosage of 5 mL/kg from 7 days after the osteoarthritis (OA) surgery once a day for 28 days. That is to say, each of the single formulas of PCP, EC and AR and the mixed formulas of PCP and EC:AR (1:1, 1:2, 1:4, 1:6, 1:8, 2:1, 4:1, 6:1 and 8:1) was orally administered at a dosage of 200 mg/kg for 28 days. For the sham surgery (sham) and osteoarthritis (OA) control groups, only sterilized distilled water was orally administered instead of the test substances. 2 mg of diclofenac sodium (Wako Pure Chemical Ind. Ltd., Osaka, Japan) dissolved in 5 mL of sterilized physiological saline was subcutaneously administered into the back skin at a dosage of 5 mL/kg (2 mg/kg) from 7 days after the osteoarthritis (OA) surgery once a day for 28 days. The administration dosage was set to 2,000 mg/60 kg×6=200 mg/kg, corresponding to 6 times the expected dosage for human (2,000 mg) in consideration of the body surface area of the rat. […]

[2] = system: rats with surgically-induced osteoarthritis (OA); experiment: Osteoarthritis rat model: BrdU-immunopositive cells (cell proliferation); settings: vs OA control group
Procedure: as §1, §2

[3] = system: rats with surgically-induced osteoarthritis (OA); experiment: Osteoarthritis rat model: knee joint thickness; settings: 200 mg/kg oral (diclofenac 2 mg/kg s.c.); vs OA control group
Procedure: as §1, §2

O=C(O)Cc1ccccc1Nc1c(Cl)cccc1Cl [Diclofenac, diclofenac sodium]
expression of collagen type II, SOX9 and aggrecan mRNAs in the femoral and tibial articular cartilage [1]: increased expression
Collagen type II mRNA expressions, Femur AC (collagen type II mRNA): 0.69 ± 0.10^ab
Collagen type II mRNA expressions, Tibia AC (collagen type II mRNA): 0.64 ± 0.11^ij
Collagen type II mRNA expressions, SM (collagen type II mRNA; SM not defined, text speaks of joint capsule): 2.74 ± 0.95^ij
number of BrdU-immunopositive cells in the joint capsule [2]: decrease in the number of BrdU-immunopositive cells in the joint capsule
knee joint thickness [3]: significant (p<0.01 or p<0.05) decrease in knee joint thickness
